One experiment concerns Caspase 3. As to the kind of experiment: Caspase 3 expression of spinal cord tissue by Western Blot, rat spinal cord injury model. The class given is in vivo. The following applies: 15 mg/kg, experimental group vs control group, gray level analysis. As for the experimental part:
(§1) Animal models of acute spinal cord injury experiment were established by using an IMPACTOR MODEL-II spinal cord injury striking system. Sixty female Wistar rats with the age from 8 to 10 weeks and the weight from 230 to 250 g were divided into three groups with 20 rats in each group: a sham-surgery operated group, a control group (spinal cord injury group) and an experimental group, respectively. At 15 minutes before striking injury, the rats in the experimental group were injected with the compound of the formula (I) at a dose of 15 mg/kg body weight.
(§2) At 6 hours, 24 hours, 48 hours, 7 days, 14 days, 28 days and 56 days after injury, respectively, the rat spinal cord tissues were sampled for the Western Blot test and TUNEL staining, so as to test the inhibiting function of the compound of the formula (I) against the cell apoptosis at the spinal cord injury sites.

Another experiment concerns NEUN(+) neuron cells. Put plainly: NEUN immunohistochemical staining (neuron survival), rat spinal cord injury model. The class given is in vivo. The following applies: 48 hours and 2 weeks after injury; experimental group vs control group. The protocol: as §1
At 48 hours and 2 weeks after injury, respectively, the three groups of rat spinal cord tissues were subjected to NEUN immunohistochemical staining.

Experiment [1] deals with spinal cord tissues. As to the kind of experiment: TUNEL staining of spinal cord tissues (cell apoptosis), rat spinal cord injury model. The class given is in vivo. The following applies: 48 hours after injury; 15 mg/kg; difference between control group and experimental group. The protocol:
as §1, §2
At 48 hours after injury, TUNEL staining was performed on three groups of spinal cord tissues. TUNEL-stained positive cells were located in the gray matter and white matter of the spinal cords, and the cell nuclei was stained brown-yellow and mostly distributed in the center of the injure and the margin thereof. […]

Experiment [2] concerns spinal cord tissues. As to the kind of experiment: HE staining of spinal cord tissues (void, inflammatory cells), rat spinal cord injury model. The class given is in vivo. As for the experimental part: as §1
No spinal cord structure destroy was observed on the rats in the sham-surgery operated group. In the control group, significant changes occurred, mainly including hemorrhage, infiltration with a large number of inflammatory cells and spinal cord structural disorder, and it was observed that in grey matter, a large number of cells were lost, while in the white matter, significant swelling of neurites was observed and axonal terminals were in sphere.

The subject of experiment [3] is Glial Fibrillary Acidic Protein (GFAP). As to the kind of experiment: GFAP frozen-section immunofluorescence (glial scar), rat spinal cord injury model. The class given is in vivo. As for the experimental part:
as §1
2. Testing Glial Fibrillary Acidic Protein (GFAP) Expression by Frozen-Section Immunofluorescence Histochemical Method
At 48 hours after injury, the spinal cord tissues were subjected to GFAP immunofluorescent staining.

The subject of experiment [4] is rats after spinal cord injury. As to the kind of experiment: BBB score of motor function of rear limbs after spinal cord injury. The class given is in vivo, rat. The following applies: comparison between experimental group and control group. The protocol: as §1
Motor function of rear limbs of the tested animals were evaluated by scoring with BBB (Basso Beattie Bresnahan locomotor rating scale, BBB). The BBB scoring was one of internationally recognized objective standards regarding nerve functions of rats after spinal cord injury. In the project, the motor function of rear limbs of the rats was evaluated from 1 day before injury to 8 weeks after injury by double-blind independent observations and records with two persons and finally statistical analyses.

The next experiment relates to ICAM1. Put plainly: ICAM1 expression of spinal cord tissue by Western Blot, rat spinal cord injury model. The class given is in vivo. The following applies: 15 mg/kg injected 15 minutes before striking injury, experimental group vs control group, gray level analysis. The protocol:
as §1
(§3) At 6 hours, 24 hours, 48 hours, 7 days, 14 days, and 28 days after injury, respectively, the rat spinal cord tissues were sampled for the Western Blot test, so as to test the inhibiting function of the compound of the formula (I) against the pro-inflammatory cytokines at the spinal cord injury sites.

The subject of the next experiment is IL-1β. Put plainly: IL-1β expression of spinal cord tissue by Western Blot, rat spinal cord injury model. The class given is in vivo. The following applies: 15 mg/kg, experimental group vs control group, gray level analysis. As for the experimental part: as §1, §3
The subject of the next experiment is oligodendrocytes. Put plainly: CNpase immunohistochemical staining (oligodendrocyte survival), rat spinal cord injury model. The class given is in vivo. The protocol: as §1
At 48 hours and 2 weeks after injury, respectively, the three groups of spinal cord tissues were subjected to CNpase immunohistochemical staining.

The next experiment concerns TNF-α. Put plainly: TNF-α expression of spinal cord tissue by Western Blot, rat spinal cord injury model. Format: in vivo. The following applies: 15 mg/kg, experimental group vs control group, gray level analysis. The protocol:
as §1, §3

“Also recorded” adds a separate entry of the source.

With `CC(C)(C)OC(=O)c1ccc(NC23CC4CC(CC(C4)C2)C3)c(/N=C\c2cncnc2)c1` [compound of the formula (I)], the “Caspase 3 expression” value in the experiment on Caspase 3 (2 weeks after injury) and in the experiment with Caspase 3 (48 hours after injury) was “significantly decreased” throughout. Moreover, the “NEUN(+) neuron cells” value in the experiment with NEUN(+) neuron cells is recorded as “more positive cells were present in the experimental group”. For the same molecule, the “survival rate of neuron cells” value in the experiment with NEUN(+) neuron cells was “higher than that in the control group”. In addition, the “quantity of TUNEL-stained positive cells” value in the experiment on spinal cord tissues [1] is on record as “had a statistical significance (p<0.05)”. Besides, in the experiment with spinal cord tissues [2] (8 weeks after spinal cord injury, control group compared to experimental group), the “area of voids (HE staining)” value is on record as “significantly increased as compared to that in the experimental group”. In the experiment with spinal cord tissues [2] (8 weeks after spinal cord injury, experimental group vs control group), the “inflammatory cells (HE staining, high magnification)” value is “significantly reduced”. In addition, the “HE staining changes (hemorrhage, inflammatory cell infiltration, spinal cord structural disorder)” value in the experiment with spinal cord tissues [2] (48 hours after injury, 200×, 15 mg/kg, vs control group) is “could significantly alleviate the above series of changes”. In the experiment with spinal cord tissues [2] (48 hours after injury, comparison between control group and experimental group), the histopathological scores result is “did not have statistical significance”. In addition, in experiment [3] (2 weeks after surgery, control group vs experimental group), the GFAP fluorescence entry is recorded as “control group was still stronger than the experimental group”. Further, in experiment [3] (48 hours after injury, experimental group vs control group), the “quantity of the formed glial scars (GFAP immunofluorescent staining)” value is “significantly decreased as compared to the control group”. Moreover, the BBB score result in [4] (1 week after injury) is recorded as “did not have any statistical significance (p>0.05)”; in [4] (2 weeks after injury) it was “had a statistical significance (p<0.05)”; in experiment [4] (8 weeks after injury), “had a statistical significance (p<0.01); also recorded: significantly higher than that of the control group”; in experiment [4] (48 hours after injury), “did not have any statistical significance (p>0.05)”. The ICAM1 expression result in the experiment with ICAM1 (2 weeks after injury) and with ICAM1 (48 hours after injury) was “significantly decreased” each time. Moreover, the IL-1β expression result in the experiment with IL-1β (2 weeks after injury) was “significantly decreased”; with IL-1β (48 hours after injury), “significantly decreased, close to the level of the shame-surgery operated group”. The “CNpase positive area and positive cells” value in the experiment with oligodendrocytes (2 weeks after injury, experimental group vs control group) is “had a larger positive area and more positive cells”. For the same molecule, the CNpase positive area result in the experiment on oligodendrocytes (48 hours after injury, vs sham-surgery operated group) is “did not markedly differ from that in the shame-surgery operated group”. The “survival rate of the oligodendrocytes” value with oligodendrocytes (experimental group vs control group) was “higher than that in the control group”. Besides, the TNF-α expression entry in the experiment with TNF-α (2 weeks after injury) is reported as “significantly decreased”; in the experiment with TNF-α (48 hours after injury), “decreased, close to the level of the shame-surgery operated group”.
